Measured values from ChEMBL document CHEMBL5034018, “LXR-Mediated Regulation of Marine-Derived Piericidins Aggravates High-Cholesterol Diet-Induced Cholesterol Metabolism Disorder in Mice” (J Med Chem, 2021).
Activity calls are given as the source filed them. No cut-off for these calls is given here.

Assays:
HepG2 [1] = assay: Induction of mitochondrial membrane potential loss in human HepG2 cells assessed as intact mitochondrial membrane potential at 5 uM after 48 hrs by TMRM dye based flow cytometric analysis (reference value: 74.2%); format: cell-based; conditions: hepg2, 48 h
Mus musculus [2] = assay: Induction of HCD-induced cholestasis in C57BL/6 mouse assessed as fold increase in liver total bile acid level at 0.8 mg/kg, ip; format: organism-based; conditions: in vivo
HepG2 [3] = assay: Cytotoxicity against human HepG2 cells assessed as reduction in cell viability at < 10 uM incubated for 48 hrs by MTT assay; format: cell-based; conditions: hepg2, 48 h
[4] = Effect on bile acid homeostasis in HCD-fed C57BL/6 mouse assessed as decrease in FXR mRNA expression by RT-qPCR analysis; format: functional; set-up: scale not given: the % may be the effect or the level left
[5] = Hepatotoxicity in renal carcinoma xenografted C57BL/6 mouse assessed as liver necrosis at 0.8 mg/kg, ip by histological analysis; format: toxicity, organism-based; conditions: in vivo
[6] = Toxicity in renal carcinoma xenografted C57BL/6 mouse kidney assessed as change in CRE level at 0.8 mg/kg, ip; format: organism-based; conditions: in vivo
[7] = Toxicity in HCD-fed C57BL/6 mouse assessed as fold increase in AST level at 0.8 mg/kg, ip; format: organism-based; conditions: in vivo
[8] = Toxicity in renal carcinoma xenografted C57BL/6 mouse assessed as effect on visceral coefficient of liver at 0.8 mg/kg, ip; format: organism-based; conditions: in vivo
HepG2 [9] = assay: Induction of calcium signal in human HepG2 cells at 5 uM by Fluo-4AM dye based fluorescence assay; format: functional, cell-based
Mus musculus [10] = assay: Induction of HCD-induced cholestasis in C57BL/6 mouse assessed as lipid accumulation in liver at 0.8 mg/kg, ip; format: functional, organism-based
[11] = Toxicity in renal carcinoma xenografted C57BL/6 mouse assessed as effect on visceral coefficient of heart at 0.8 mg/kg, ip; format: organism-based; conditions: in vivo
Mus musculus [12] = organism: Mus musculus; assay: Effect on bile acid homeostasis in HCD-fed C57BL/6 mouse assessed as change in Bsep mRNA expression by RT-qPCR analysis; format: functional
Mus musculus [13] = assay: Induction of histopathological changes in HCD-fed C57BL/6 mouse assessed as swelling gallbladder size at 0.8 mg/kg, ip; format: organism-based; conditions: in vivo
[14] = Toxicity in renal carcinoma xenografted C57BL/6 mouse assessed as effect on visceral coefficient of lung at 0.8 mg/kg, ip; format: organism-based; conditions: in vivo
HepG2 [15] = assay: Induction of apoptosis in human HepG2 cells assessed as change in caspase 3 protein expression at 1 to 5 uM after 48 hrs; format: functional, cell-based; conditions: dose 1-5 µM
[16] = Toxicity in renal carcinoma xenografted C57BL/6 mouse assessed as effect on visceral coefficient of spleen at 0.8 mg/kg, ip; format: organism-based; conditions: in vivo
[17] = Hepatotoxicity in renal carcinoma xenografted C57BL/6 mouse assessed as fold increase in plasma ALT at 0.8 mg/kg, ip; format: toxicity, organism-based; conditions: in vivo
Mus musculus [18] = assay: Reversal of HCD-induced LXRalpha activation in C57BL/6 mouse assessed as decrease in LXRalpha protein level at 0.8 mg/kg, ip; format: functional; set-up: scale not given: the % may be the effect or the level left
[19] = Effect on bile acid homeostasis in HCD-fed C57BL/6 mouse assessed as inhibition of Cyp7a1 mRNA expression by RT-qPCR analysis; format: functional; set-up: scale not given: the % may be the effect or the level left
[20] = Toxicity in renal carcinoma xenografted C57BL/6 mouse assessed as change in IL-6 level at 0.8 mg/kg, ip; format: organism-based; conditions: in vivo
[21] = Toxicity in renal carcinoma xenografted C57BL/6 mouse assessed as change in IL-1beta level at 0.8 mg/kg, ip; format: organism-based; conditions: in vivo
HepG2 [22] = assay: Induction of mitochondrial dysfunction in human HepG2 cells assessed as increase in ROS production at 0.1 to 5 uM after 48 hrs by flow cytometric analysis; format: cell-based; conditions: hepg2, 48 h, dose 0.1-5 µM
[23] = Induction of LDLR mRNA level in human HepG2 cells assessed as fold increase in LDLR expression at 1 uM by RT-qPCR analysis; format: functional
[24] = Effect on bile acid homeostasis in HCD-fed C57BL/6 mouse assessed as reversal of LXRbeta mRNA upregulation by RT-qPCR analysis; format: functional
[25] = Hepatotoxicity in renal carcinoma xenografted C57BL/6 mouse assessed as liver swelling at 0.8 mg/kg, ip; format: toxicity, organism-based; conditions: in vivo
[26] = Down regulation of Cyp7a1 mRNA expression level in human HepG2 cells at 1 uM by RT-qPCR analysis; format: functional
[27] = Toxicity in renal carcinoma xenografted C57BL/6 mouse assessed as effect on visceral coefficient of kidney at 0.8 mg/kg, ip; format: organism-based; conditions: in vivo
HepG2 [28] = assay: Induction of apoptosis in human HepG2 cells assessed as late apoptotic cells at 5 uM measured after 48 hrs by Annexin-V-FITC/propidium iodide staining based flow cytometry (reference value: 0 %); format: functional
[29] = Effect on bile acid homeostasis in HCD-fed C57BL/6 mouse assessed as inhibition of Cyp8b1 mRNA expression by RT-qPCR analysis; format: functional; set-up: scale not given: the % may be the effect or the level left
[30] = Effect on bile acid homeostasis in HCD-fed C57BL/6 mouse assessed as decrease in Car mRNA expression by RT-qPCR analysis; format: functional; set-up: scale not given: the % may be the effect or the level left
Mus musculus [31] = assay: Induction of HCD-induced cholestasis in C57BL/6 mouse assessed as large scale necrotic foci at 0.8 mg/kg, ip; format: functional, organism-based
HepG2 [32] = assay: Induction of apoptosis in human HepG2 cells assessed as live cells at 5 uM measured after 48 hrs by Annexin-V-FITC/propidium iodide staining based flow cytometry (reference value: 84.5 %); format: functional
Mus musculus [33] = organism: Mus musculus; assay: Effect on bile acid homeostasis in HCD-fed C57BL/6 mouse assessed as change in Car protein expression; format: functional
[34] = Toxicity in renal carcinoma xenografted C57BL/6 mouse kidney assessed as change in BUN level at 0.8 mg/kg, ip; format: organism-based; conditions: in vivo
[35] = Hepatotoxicity in renal carcinoma xenografted C57BL/6 mouse assessed as fold increase in plasma AST at 0.8 mg/kg, ip; format: toxicity, organism-based; conditions: in vivo
[36] = Down regulation of Cyp7a1 mRNA expression level in human HepG2 cells at 5 uM by RT-qPCR analysis; format: functional
Mus musculus [37] = assay: Induction of hepatic pathological changes in normal chow diet fed C57BL/6 mouse at 0.8 mg/kg, ip; format: organism-based; conditions: in vivo
[38] = Down regulation of SHP mRNA level in human HepG2 cells at 5 uM by RT-qPCR analysis; format: functional
[39] = Toxicity in HCD-fed C57BL/6 mouse assessed as fold increase in ALT level at 0.8 mg/kg, ip; format: organism-based; conditions: in vivo
[40] = Effect on bile acid homeostasis in HCD-fed C57BL/6 mouse assessed as fold increase in LXRalpha mRNA expression by RT-qPCR analysis; format: functional
Mus musculus [41] = assay: Induction of HCD-induced cholestasis in C57BL/6 mouse assessed as fold increase in liver total cholesterol level at 0.8 mg/kg, ip; format: organism-based; conditions: in vivo
Mus musculus [42] = organism: Mus musculus; assay: Effect on bile acid homeostasis in HCD-fed C57BL/6 mouse assessed as change in Ugt1a1 mRNA expression by RT-qPCR analysis; format: functional
Mus musculus [43] = assay: Induction of HCD-induced cholestasis in C57BL/6 mouse assessed as fold increase in liver LDL-cholesterol level at 0.8 mg/kg, ip; format: organism-based; conditions: in vivo

SMILES: C/C=C(\C)[C@H](O)[C@H](C)/C=C(C)/C=C/C/C(C)=C/Cc1nc(OC)c(OC)c(O)c1C [PIERICIDIN A]
- Activity (HepG2 [1]): 26.4%
- fold change (FC) (Mus musculus [2]): 2.2
- Activity (HepG2 [3]): Non-Toxic
- Activity [4]: 58%
- Activity [5]: Toxic
- Activity [6]: Non-Toxic
- fold change (FC) [7]: 2.3
- Activity [8]: Non-Toxic
- Activity (HepG2 [9]): Active
- Activity (Mus musculus [10]): Active
- Activity [11]: Non-Toxic
- Activity (Mus musculus [12]): inactive
- Activity (Mus musculus [13]): Toxic
- Activity [14]: Non-Toxic
- Activity (HepG2 [15]): Toxic
- Activity [16]: Non-Toxic
- fold change (FC) [17]: 2.6
- Activity (Mus musculus [18]): 72%
- Activity [19]: 14%
- Activity [20]: Non-Toxic
- Activity [21]: Non-Toxic
- Activity (HepG2 [22]): Non-Toxic
- fold change (FC) [23]: 2.7
- Activity [24]: 72%
- Activity [25]: Non-Toxic
- Activity [26]: 27%
- Activity [27]: Non-Toxic
- Activity (HepG2 [28]): 0%
- Activity [29]: 2.8%
- Activity [30]: 50%
- Activity (Mus musculus [31]): Active
- Activity (HepG2 [32]): 75.4%
- Activity (Mus musculus [33]): inactive
- Activity [34]: Non-Toxic
- fold change (FC) [35]: 1.6
- Activity [36]: 26%
- Activity (Mus musculus [37]): Non-Toxic
- Activity [38]: 30%
- fold change (FC) [39]: 3.7
- fold change (FC) [40]: 1.3
- fold change (FC) (Mus musculus [41]): 2.7
- Activity (Mus musculus [42]): inactive
- fold change (FC) (Mus musculus [43]): 2.2

SMILES: C/C=C(\C)[C@H](O[C@@H]1O[C@H](CO)[C@@H](O)[C@H](O)[C@H]1O)[C@H](C)/C=C(C)/C=C/C/C(C)=C/Cc1nc(OC)c(OC)c(O)c1C
- Activity (HepG2 [1]): 16.6%
- fold change (FC) (Mus musculus [2]): 2.3
- Activity (HepG2 [3]): Non-Toxic
- Activity [4]: 60%
- Activity [5]: Toxic
- Activity [6]: Non-Toxic
- fold change (FC) [7]: 2.3
- Activity [8]: Non-Toxic
- Activity (HepG2 [9]): Active
- Activity (Mus musculus [10]): Active
- Activity [11]: Non-Toxic
- Activity (Mus musculus [12]): inactive
- Activity (Mus musculus [13]): Toxic
- Activity [14]: Non-Toxic
- Activity (HepG2 [15]): Toxic
- Activity [16]: Non-Toxic
- fold change (FC) [17]: 2.3
- Activity (Mus musculus [18]): 46%
- Activity [19]: 14%
- Activity [20]: Non-Toxic
- Activity [21]: Non-Toxic
- Activity (HepG2 [22]): Non-Toxic
- fold change (FC) [23]: 2.5
- Activity [24]: 72%
- Activity [25]: Non-Toxic
- Activity [26]: 51%
- Activity [27]: Non-Toxic
- Activity (HepG2 [28]): 0%
- Activity [29]: 3%
- Activity [30]: 86%
- Activity (Mus musculus [31]): Active
- Activity (HepG2 [32]): 64.3%
- Activity (Mus musculus [33]): inactive
- Activity [34]: Non-Toxic
- fold change (FC) [35]: 2.2
- Activity [36]: 38%
- Activity (Mus musculus [37]): Non-Toxic
- Activity [38]: 61%
- fold change (FC) [39]: 3.8
- fold change (FC) [40]: 1.4
- fold change (FC) (Mus musculus [41]): 3.8
- Activity (Mus musculus [42]): inactive
- fold change (FC) (Mus musculus [43]): 2.9
